Water solubility and pKa data for one molecule are collected here from US20090196861A1, “Biocompatible Latent Emulsifiers” (BIOAVAILABILITY, INC., priority 2005, published 2009).

Broadly, the pKa is the pH at which an ionisable group is half protonated.

Some results are limits rather than exact numbers.

The nature of data set [1]: Water solubility at neutral pH. The class given is physicochemical. The conditions noted are these: inferred from pKa. An excerpt:
Rudnic et al. point out that short chain fatty acids are ionized at neutral pH, giving them a […] solubility, and imply that long chain fatty acids are not ionized and, thus, are even less soluble in water. […] Further, medium to long chain (C8 to C22) fatty acids have very limited water solubility; when mixing with water these fatty acids tend to separate from water completely just as oil or fat do.

For data set [2] the following is noted: measured to be as high as (Kanicky, 2002); cited from earlier work.

`CCCCCCCC/C=C\CCCCCCCC(=O)O` [oleic acid]: the water solubility result in data set [1] is recorded as “essentially water insoluble”. For the same molecule, the pKa in data set [2] was not above 9.85.
